{"source": "patent US20050214387A1", "about": "“Low-dose potassium supplementation for the prevention and treatment of hypertension” (priority 2002, published 2005)", "key": {"[1]": {"tested_on": "apparently healthy volunteers", "experiment": "Low-dose potassium trial: compliance and side effects", "type": "in vivo, human", "settings": "one person receiving potassium", "protocol": "The patients and the investigator were unaware of the type of supplement being given, other than that it was a nutrient. The placebo and potassium chloride pills were provided in identical containers. The adherence of the volunteers to the treatment was assessed at each visit by questioning, and by counting the pills returned.\nThe baseline blood pressure used for the statistical analysis was the average of the measurements taken during the first week period. For Interval level variables (e.g. BP), differences between groups were tested using the Two-Sample t test while differences within each group were tested with the Paired t test. For Ordinal level variables (e.g. compliance) these tests were performed using the Mann-Whitney Test and the Wilcoxon Signed Rank Test for comparisons between and within the two groups respectively. The Chi-Squared Test was used to assess the significance of differences between the groups for Nominal level variables (e.g. gender)."}, "[2]": {"tested_on": "apparently healthy volunteers", "experiment": "Double-blind placebo-controlled low-dose potassium trial: blood pressure (MAP, SBP, DBP)", "type": "in vivo, human", "settings": "for DBP Week 3 − Week 0 mean difference / MAP Week 3 − Week 0 mean difference / SBP Week 3 − Week 0 mean difference: change Week 0 to 3, n = 30, mean ± SEM; for DBP Week 6 − Week 0 mean difference / MAP Week 6 − Week 0 mean difference / SBP Week 6 − Week 0 mean difference: change Week 0 to 6, n = 30, mean ± SEM", "protocol": "A double-blind, placebo controlled trial on 59 volunteers, randomly assigned to receive 24 mmol/d of slow release potassium chloride (n=30) or a placebo (n=29) was conducted. Measures of BP, anthropometric characteristics and urine analysis for electrolytes were recorded during a one-week baseline period. Supplementation was for six weeks during which BP and changes in weight were assessed and a second 24-hour urine collection made. The primary outcome was the change in mean arterial pressure (MAP). Systolic (SBP) and diastolic (DBP) blood pressure were secondary outcomes.\nThe study took the form of a randomized double-blind, placebo-controlled trial with the aim of testing the effect of potassium supplementation on BP. […] The study consisted of a baseline period of one week during which blood pressure and body weight were measured at the beginning and end, and a 24-hour urine sample was collected to estimate electrolyte intake. During a six weeks intervention phase, BP and body weight were measured at three-week intervals, and a second 24-hour urine sample was collected during the final week. Potassium chloride was administered as one slow release tablet containing 8 mmol of potassium chloride (Slow-K Tablets 600 mg kindly supplied by Alliance Pharmaceuticals Ltd, Avonbridge House, Chippenham, Wiltshire SN15 2BB, UK) three times a day with meals. The placebo contained sorbitol and fructose.\nEach BP measurement was performed following current recommendations (Beevers et al., ABC of hypertension, 4th Ed., London, BMJ Publishing Group, 2000). BP was assessed at the same time of day (within 30 minutes) for every appointment to avoid the influence of circadian variations in BP (Id.), at approximately the same heart rate, and by the same observer using the same instruments throughout the study for each measurement. The subjects were instructed not to smoke, eat or drink during the 30 minutes before each appointment They were also given verbal and written notice to avoid exercising 30 minutes before the appointment, to come to the appointment with an empty bladder and to maintain strictly their usual habits on the day of the appointment (coffee, tea, meals consumed at the same time of the day). BP measurements were performed after the subjects had rested quietly for at least five minutes in the seated position. Two different cuffs (35 cm and 42 cm) were used depending on the arm circumference. At each visit at least three readings for systolic (SBP) and diastolic (DBP) BP and heart rate were taken at two-minute intervals in the left arm using a semi-automated device employing the oscillometric method (Omron M5-I, Omron Healthcare Europe B.V., Hoofddorp, The Netherlands). The first readings of each assessment were ignored to avoid results affected by the defense reaction (Beevers et al., ABC of hypertension, 4th Ed., London, BMJ Publishing Group, 2000) and the last two readings were averaged and recorded. The readings were thereafter confirmed after a two-minute interval with a Hawksley random zero sphygmomanometer (Hawksley and Sons, Lancing, Sussex, UK) because automatic devices may be unsuitable for some individuals for which there is no obvious reason (Id.).\nSBP was measured as the point of appearance of the Korotkoff sounds (Phase I) and DBP was measured as the point of complete disappearance of the Korotkoff sounds (Phase V) according to the guidelines given by the British Hypertension Society (Id). All recordings from the semi-automated device agreed well with the random zero sphygmomanometer. Subjects with either SBP≧140 mm Hg or DBP level≧90 mm Hg were considered to be hypertensive.\nMean Arterial Pressure (MAP) was computed as MAP=(2 DBP+SBP)/3 (Vander et al., Human Physiology, The Mechanism of Body Function, 8th Ed., McGraw-Hill, New York, 2000, pp. 407-16 and 626-34, and Wilson et al., Hypertension, 1999, 34, 181-6). […]"}, "hypertensive patients": {"tested_on": "hypertensive patients", "settings": "18 hypertensive patients, daily supplement of 48 mmol; cited from earlier work"}, "[3]": {"settings": "24 mmol/d slow release potassium chloride, n = 30, mean ± SEM"}, "[4]": {"settings": "Week 0 to 6, listed as potassium"}, "[5]": {"settings": "after six weeks of supplementation, versus placebo"}, "[6]": {"settings": "within potassium group, listed as potassium"}, "[7]": {"settings": "within potassium group, change Week 3 to 6, n = 30, mean ± SEM"}}, "note": "Several values for one entry are separate records, joined by “and”; a condition that tells them apart may be missing. Equal entries are not always repeated."}
{"smiles": "[Cl-].[K+]", "note": "[Potassium, potassium chloride]", "values": [{"measurement": "side effects reported", "setting": "[1]", "result": "increase in appetite"}, {"measurement": "DBP Week 3", "setting": "[2]; [3]", "result": "72.95 ± 2.08", "unit": "mm Hg"}, {"measurement": "DBP Week 6", "setting": "[2]; [3]", "result": "71.47 ± 1.90", "unit": "mm Hg"}, {"measurement": "MAP Week 3", "setting": "[2]; [3]", "result": "87.67 ± 2.20", "unit": "mm Hg"}, {"measurement": "MAP Week 6", "setting": "[2]; [3]", "result": "84.97 ± 2.06", "unit": "mm Hg"}, {"measurement": "SBP Week 3", "setting": "[2]; [3]", "result": "117.17 ± 2.71", "unit": "mm Hg"}, {"measurement": "SBP Week 6", "setting": "[2]; [3]", "result": "111.93 ± 2.52", "unit": "mm Hg"}, {"measurement": "DBP Potassium − placebo Mean Difference (95% CI)", "setting": "[2]; Week 0 to 3", "result": "−4.11 (−6.09, −2.13)^4 mm Hg"}, {"measurement": "MAP Potassium − placebo Mean Difference (95% CI)", "setting": "[2]; Week 0 to 3", "result": "−3.34 (−5.22, −1.47)^3 mm Hg"}, {"measurement": "SBP Potassium − placebo Mean Difference (95% CI)", "setting": "[2]; Week 0 to 3", "result": "−1.28 (−4.21, 1.65) mm Hg"}, {"measurement": "DBP Potassium − placebo Mean Difference (95% CI)", "setting": "[2]; Week 0 to 6", "result": "−6.46 (−8.74, −4.19)^4 mm Hg"}, {"measurement": "MAP Potassium − placebo Mean Difference (95% CI)", "setting": "[2]; Week 0 to 6", "result": "−7.01 (−9.12, −4.89)^4 mm Hg"}, {"measurement": "SBP Potassium − placebo Mean Difference (95% CI)", "setting": "[2]; Week 0 to 6", "result": "−7.60 (−10.46, −4.73)^4 mm Hg"}, {"measurement": "DBP Potassium − placebo Mean Difference (95% CI)", "setting": "[2]; [4]", "result": "marked and significant decrease"}, {"measurement": "MAP Potassium − placebo Mean Difference (95% CI)", "setting": "[2]; [4]", "result": "marked and significant decrease"}, {"measurement": "SBP Potassium − placebo Mean Difference (95% CI)", "setting": "[2]; [4]", "result": "marked and significant decrease"}, {"measurement": "DBP Potassium − placebo Mean Difference (95% CI)", "setting": "[2]; Week 3 to 6", "result": "−2.35 (−4.70, −0.00)^5 mm Hg"}, {"measurement": "MAP Potassium − placebo Mean Difference (95% CI)", "setting": "[2]; Week 3 to 6", "result": "−3.66 (−5.84, −1.49)^3 mm Hg"}, {"measurement": "SBP Potassium − placebo Mean Difference (95% CI)", "setting": "[2]; Week 3 to 6", "result": "−6.32 (−8.84, −3.79)^4 mm Hg"}, {"measurement": "reduction in DBP", "setting": "[2]; [5]", "result": 6.46, "unit": "mm Hg"}, {"measurement": "reduction in MAP", "setting": "[2]; [5]", "result": 7.01, "unit": "mm Hg"}, {"measurement": "reduction in SBP", "setting": "[2]; [5]", "result": 7.60, "unit": "mm Hg"}, {"measurement": "DBP Week 3 − Week 0 mean difference", "setting": "[2]; within potassium group", "result": "−2.53 ± 0.73^6 mm Hg and −2.53 ± 0.73 mm Hg"}, {"measurement": "MAP Week 3 − Week 0 mean difference", "setting": "[2]; within potassium group", "result": "−2.21 ± 0.72^3 mm Hg and −2.21 ± 0.72^2 mm Hg"}, {"measurement": "SBP Week 3 − Week 0 mean difference", "setting": "[2]; within potassium group", "result": "−0.98 ± 1.20", "unit": "mm Hg"}, {"measurement": "DBP Week 3 − Week 0 mean difference", "setting": "[2]; [6]", "result": "significant decrease"}, {"measurement": "MAP Week 3 − Week 0 mean difference", "setting": "[2]; [6]", "result": "significant decrease"}, {"measurement": "SBP Week 3 − Week 0 mean difference", "setting": "[2]; [6]", "result": "not significantly reduced"}, {"measurement": "DBP Week 6 − Week 0 mean difference", "setting": "[2]; within potassium group", "result": "−4.02 ± 0.87^5 mm Hg and −4.02 ± 0.87 mm Hg"}, {"measurement": "MAP Week 6 − Week 0 mean difference", "setting": "[2]; within potassium group", "result": "−4.91 ± 0.80^5 mm Hg and −4.91 ± 0.79 mm Hg"}, {"measurement": "SBP Week 6 − Week 0 mean difference", "setting": "[2]; within potassium group", "result": "−6.22 ± 1.07^5 mm Hg and −6.22 ± 1.10 mm Hg"}, {"measurement": "DBP Week 6 − Week 0 mean difference", "setting": "[2]; [6]", "result": "decreased significantly"}, {"measurement": "MAP Week 6 − Week 0 mean difference", "setting": "[2]; [6]", "result": "decreased significantly"}, {"measurement": "SBP Week 6 − Week 0 mean difference", "setting": "[2]; [6]", "result": "decreased significantly"}, {"measurement": "DBP Week 6 − Week 3 mean difference", "setting": "[2]; [7]", "result": "−1.48 ± 0.98 mm Hg and −1.48 ± 0.97 mm Hg"}, {"measurement": "MAP Week 6 − Week 3 mean difference", "setting": "[2]; [7]", "result": "−2.70 ± 0.91^4 mm Hg and −2.70 ± 0.91 mm Hg"}, {"measurement": "SBP Week 6 − Week 3 mean difference", "setting": "[2]; [7]", "result": "−5.23 ± 1.03^5 mm Hg and −5.23 ± 1.00 mm Hg"}, {"measurement": "SBP Week 6 − Week 3 mean difference", "setting": "[2]; within potassium group, change Week 3 to 6, n = 30, mean ± SEM, listed as potassium", "result": "decreased significantly"}, {"measurement": "effect on BP", "setting": "hypertensive patients", "result": "lower BP"}]}
